Laboratory results as given in ChEMBL document CHEMBL1122965, “The pKa of butaclamol and the mode of butaclamol binding to central dopamine receptors” (J Med Chem, 1985).

Target: Dopamine receptor (Homo sapiens) (UniProt P14416+P35462+P21918+P21917+P21728)
Description: Compound was evaluated for its binding affinity towards Dopamine receptor

Compound	pKa
CC(C)(C)[C@]1(O)CCN2C[C@@H](c3ccccc3)c3ccccc3[C@@H]2C1	7.03
c1ccc([C@H]2CN3CCC[C@H]3c3ccccc32)cc1	9.12
